Assay results reported in patent US10233168B2, “14-hydroxy-docosahexaenoic acid compounds” (The Brigham And Women's Hospital, Inc., priority 2008, dated 2019).
Each block holds one molecule with its values, some of them ahead of it.

Legend:
peritoneal MΦs [1] = experiment: MΦ phagocytosis of FITC-labeled zymosan; assay type: cell-based, mice; conditions: for enhancement of MΦ phagocytosis of zymosan: 15 min compound, then FITC-labeled zymosan 30 min, 37° C.
Procedure: (§1) The 7,14-dihydroxy-containing products were isolated from methyl formate fractions obtained from murine MΦs via RP-HPLC (Agilent 1100 series) using a Beckman C18 column (250 mm×10 mm×5 μm) and methanol/water (65/35; v/v) ramped to 85/15 (v/v) for 30 min. Their actions were assessed in murine zymosan A-induced peritonitis (19). Peritonitis was initiated by intraperitoneal (i.p.) administration of 1 mg zymosan A in 1 ml of sterile saline, and each compound was administered i.v. 5 min before zymosan. At 2 h, mice were sacrificed, and peritoneal exudates harvested (5 ml DPBS^−/− without calcium and magnesium), identified and enumerated by light microscopy and FACS. Resident MΦs were identified by FACS (8). To assess pro-resolving actions, peritoneal MΦs (24-well plate, 10^5 cells/well) from naïve mice were incubated with each compound (15 min, pH 7.45) followed by addition of FITC-labeled Zymosan A (30 min, 37° C.). Trypan blue was used to quench extracellular zymosan particles (1 min, 37° C.) followed by DPBS^+/+ (pH 7.45), and phagocytosis quantified using a Perkin-Elmer Victor^3.

PMN = experiment: murine zymosan A-induced peritonitis, exudate PMN; assay type: in vivo, mice
Procedure: as §1

peritoneal MΦs [2] = conditions: literature ref. 13; cited from earlier work
lipoxygenase (LOX) = experiment: LC/MS/MS lipidomics of peritonitis exudates with LOX inhibitor; assay type: in vivo, mice; conditions: exudates obtained with the LOX inhibitor, n=3
Procedure: In view of the actions of specialized chemical mediators in resolution (6, 7), 17-HDHA was monitored as a biomarker of activation and conversion of endogenous DHA, as well as employed targeted lipidomics to query whether other pathways were operative (see FIG. 1). During this course of peritonitis, PMN rapidly entered, reaching max within 12 h. In this self-resolving system (19), PMN declined and were lost from exudates, thus defining resolution (FIG. 1). Unbiased targeted mediator lipidomics employing LC/MS/MS-based analyses were carried out with these exudates. In addition to 17S-HDHA, a marker of resolvin and protectin biosynthesis (6), endogenous DHA was converted to 14S-hydroxydocosahexaenoic acid (14S-HDHA).

Structure (SMILES): CC/C=C\C/C=C\CC(O)C=CC=CC=CC(O)C/C=C\CCC(=O)O (stereo not drawn) [MaR1, 7,14-dihydroxydocosa-4Z,8,10,12,16Z,19Z-hexaenoic acid]
enhancement of MΦ phagocytosis of zymosan (peritoneal MΦs [1]; FIG. 3D): enhances phagocytosis
potency compared to RvE1 and PD1 (peritoneal MΦs [1]; FIG. 3, inset comparison at 1 nM): comparable potency
dose (as low as) that potently reduced infiltration of PMN into sites of inflammation (PMN; i.v. before i.p. zymosan, dose response FIG. 3C): 0.2 ng/mouse
anti-inflammatory action regulating PMN entry into zymosan-induced peritonitis (PMN; nanogram quantities per mouse, FIG. 3A): stopping PMN infiltration

Structure (SMILES): CC/C=C\C[C@H](O)\C=C/C=C/C=C/[C@H](O)C/C=C\C/C=C\CCC(=O)O [PD1, 10R,17S-dihydroxydocosa-4Z,7Z,11E,13E,15Z,19Z-hexaenoic acid]
concentration (as low as) enhancing MΦ phagocytosis (peritoneal MΦs [2]): 1 nM

Structure (SMILES): CCCCC[C@H](O)/C=C/[C@H]1[C@H](O)CC(=O)[C@@H]1C/C=C\CCCC(=O)O [PGE2, prostaglandin E2, reference compound]
enhancement of MΦ phagocytosis of zymosan (peritoneal MΦs [1]; FIG. 3D): did not enhance phagocytosis

Structure (SMILES): CC[C@@H](O)/C=C/C=C\C[C@@H](O)/C=C/C=C/C=C\[C@@H](O)CCCC(=O)O [RvE1, 5S,12R,18R-trihydroxyeicosa-6Z,8E,10E,14Z,16E-pentaenoic acid]
concentration (as low as) enhancing MΦ phagocytosis (peritoneal MΦs [2]): 1 nM

Structure (SMILES): CC/C=C\C/C=C\C[C@H](O)/C=C/C=C\C=C\[C@@H](O)C/C=C\CCC(=O)O [double dioxygenation product, 7S,14S-dihydroxydocosa-4Z,8E,10Z,12E,16Z,19Z-hexaenoic acid]
enhancement of MΦ phagocytosis of zymosan (peritoneal MΦs [1]; FIG. 3D): active
potency in phagocytosis compared with the new product isolated from MΦs (peritoneal MΦs [1]; direct comparison, FIG. 3D): less potent
PMN infiltration in zymosan-induced peritonitis (PMN; 0.1 ng dose per mouse, leukocytes enumerated after 2 h, FIG. 3B): reduced PMN infiltration
potency on PMN infiltration compared with the MΦ isolated material (PMN; 0.1 ng/mouse each, FIG. 3B): less potent

17S-HDHA and 14S-HDHA in peritonitis exudates (lipoxygenase (LOX)): Neither product was identified
Structure (SMILES): O=c1ccc2cc(O)c(O)cc2o1 [esculetin]
